In patent publication US20240116962A1, “PYRIDINE-2-AMINE DERIVATIVE AND PHARMACEUTICAL COMPOSITION AND USE THEREOF” (TSINGHUA UNIVERSITY, priority 2020, published 2024):
Read-outs that look alike come from different tables or passages of the source.

Key:
hTLR8 = target: T1, hTLR8 (Homo sapiens, UniProt Q9NR97); test: EC50 assay for small molecule agonists, HEK-Blue hTLR8 cells, SEAP readout; type: cell-based
T1 construct: host or cells: HEK-Blue hTLR8 (HEK293-derived reporter cells with SEAP read-out)
T1 sequence (Q9NR97 27-1041): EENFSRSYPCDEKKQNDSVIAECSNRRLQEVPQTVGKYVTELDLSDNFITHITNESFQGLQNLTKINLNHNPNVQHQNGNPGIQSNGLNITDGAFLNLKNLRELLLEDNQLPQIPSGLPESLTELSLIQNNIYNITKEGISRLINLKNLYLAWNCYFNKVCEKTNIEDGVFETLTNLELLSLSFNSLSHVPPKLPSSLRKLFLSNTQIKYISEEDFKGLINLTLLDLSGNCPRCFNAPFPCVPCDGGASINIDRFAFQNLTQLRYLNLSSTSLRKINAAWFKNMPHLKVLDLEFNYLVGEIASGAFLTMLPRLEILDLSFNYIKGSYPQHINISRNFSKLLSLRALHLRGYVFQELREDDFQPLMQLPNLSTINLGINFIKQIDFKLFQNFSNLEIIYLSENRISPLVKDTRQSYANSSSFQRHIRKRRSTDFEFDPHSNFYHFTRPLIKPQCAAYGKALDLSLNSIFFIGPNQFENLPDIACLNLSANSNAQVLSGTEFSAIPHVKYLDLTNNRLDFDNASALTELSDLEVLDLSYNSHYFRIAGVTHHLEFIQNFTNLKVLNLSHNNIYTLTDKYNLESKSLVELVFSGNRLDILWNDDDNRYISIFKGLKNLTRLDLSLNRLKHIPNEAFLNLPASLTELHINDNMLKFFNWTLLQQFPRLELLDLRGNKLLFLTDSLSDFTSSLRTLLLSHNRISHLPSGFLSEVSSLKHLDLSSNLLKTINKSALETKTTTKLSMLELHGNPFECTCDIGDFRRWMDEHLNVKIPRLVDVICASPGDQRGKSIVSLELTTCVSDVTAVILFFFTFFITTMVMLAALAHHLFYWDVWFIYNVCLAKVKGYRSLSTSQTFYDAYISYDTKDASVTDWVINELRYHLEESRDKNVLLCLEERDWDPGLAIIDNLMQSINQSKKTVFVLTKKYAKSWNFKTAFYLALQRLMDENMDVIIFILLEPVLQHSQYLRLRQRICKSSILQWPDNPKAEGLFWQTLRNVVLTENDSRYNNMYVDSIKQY
Procedure: (§1) Reagents used for cell culture and detection for HEK-Blue™ hTLR7, HEK-Blue™ hTLR8 and control HEK-Blue Nu112k were as follows: DMEM (4.5 g/L glucose), bovine serum FBS, streptomycin ([…]), penicillin (50 U/mL), Blasticidin (10 mg/mL), Zeocin™ (10 mg/mL), Normocin (50 mg/mL), and HEK-Blue™ Detection. Basal medium was as follows: DMEM +10% FBS+streptomycin+penicillin+Normocin ([…]); selective medium for resistance genes was as follows: DMEM+10% FBS+streptomycin+penicillin+Normocin (1001 μg/mL)+Blasticidin (1001 μg/mL)+Zeocin™ (1001 μg/mL).
(§2) Cell preparation: HEK-Blue™ hTLR7 and HEK-Blue™ hTLR8 cell lines were purchased from Invivogen. The cells frozen in liquid nitrogen were taken, quickly placed in a water bath at 37° C., shaken occasionally, and completely melted within 1 min. The cells were transferred to 15 mL of pre-heated basal medium and resuspended; centrifuged at 1,000 r/min for 5 min, supernatant discarded; resuspended with 1 mL of basal medium, transferred to a T25 culture flask, supplemented to 5 mL with the medium, and incubated in an incubator at 37° C.; after stable passage twice, and subjected to selective antibiotic screening: HEK-Blue™ hTLR7 or HEK-Blue™ hTLR8: 100 μg/mL Zeocin+Blasticidin (30 μg/mL), HEK-Blue Nu112-k: 100 μg/mL Zeocin. The fluid was changed 3 times a week. When the number of cells reached 70%-80%, PBS was added, and the cells were exfoliated by gently pipetting.
(§3) Activity assay steps: (1) adding a test sample to a 96-well plate at 20 μL/well (triplicate wells were set); (2) adding 20 μL of positive control (e.g., R848), and adding 20 μL of negative control (e.g., ddH2O); (3) removing a T75 culture flask from the incubator, discarding the medium, adding 5-10 mL of pre-heated PBS, and gently pipetting the cells; adding 2-5 mL of PBS to the culture flask, incubating the culture flask in the incubator for 1-2 min, and then gently pipetting the cells to make them exfoliated; (4) mixing the mixture well, and counting the cells, without centrifugation; resuspending the cells with HEK-Blue™ assay solution and adjusting the cell number, taking care not to incubate for a long time to avoid too deep background or false positive. HEK-Blue hTLR cell number was about 2.2×10^5/mL, 180 μL/well (about 40000 cells), and HEK-Blue Nu112-k cell number was about 2.8×10^5/mL, 180 μL/well (about 50000 cells). (5) incubating the cells in the incubator at 37° C. for 6-16 h, and detecting at 620-655 nm for SEAP readings.
(§4) Effect %=(mean OD of the administration group−mean OD of the H2O group at each concentration)/(mean ODmax of the positive drug group−mean OD of the H2O group)×100. EC50 was calculated by fitting Lg [concentration]-effect curves using GraphPad Prism5 software.
(§5) Experimental results: the concentration for 50% of maximal effect (EC50) refers to a corresponding concentration of small molecules that can cause 50% of the maximal agonistic effect. […] EC50 represents a potency for agonizing the TLR8 receptor, with smaller values indicating better efficacy. […] In the following table, the unit of the agonist activity is nanomole, unless otherwise specified.

hTLR7 = target: T2, hTLR7 (Homo sapiens, UniProt Q9NYK1); test: EC50 assay for small molecule agonists, HEK-Blue hTLR7 cells, SEAP readout; type: cell-based; conditions: agonist activity
T2 construct: host or cells: HEK-Blue hTLR7 (HEK293-derived reporter cells with SEAP read-out)
T2 sequence (Q9NYK1 27-1049): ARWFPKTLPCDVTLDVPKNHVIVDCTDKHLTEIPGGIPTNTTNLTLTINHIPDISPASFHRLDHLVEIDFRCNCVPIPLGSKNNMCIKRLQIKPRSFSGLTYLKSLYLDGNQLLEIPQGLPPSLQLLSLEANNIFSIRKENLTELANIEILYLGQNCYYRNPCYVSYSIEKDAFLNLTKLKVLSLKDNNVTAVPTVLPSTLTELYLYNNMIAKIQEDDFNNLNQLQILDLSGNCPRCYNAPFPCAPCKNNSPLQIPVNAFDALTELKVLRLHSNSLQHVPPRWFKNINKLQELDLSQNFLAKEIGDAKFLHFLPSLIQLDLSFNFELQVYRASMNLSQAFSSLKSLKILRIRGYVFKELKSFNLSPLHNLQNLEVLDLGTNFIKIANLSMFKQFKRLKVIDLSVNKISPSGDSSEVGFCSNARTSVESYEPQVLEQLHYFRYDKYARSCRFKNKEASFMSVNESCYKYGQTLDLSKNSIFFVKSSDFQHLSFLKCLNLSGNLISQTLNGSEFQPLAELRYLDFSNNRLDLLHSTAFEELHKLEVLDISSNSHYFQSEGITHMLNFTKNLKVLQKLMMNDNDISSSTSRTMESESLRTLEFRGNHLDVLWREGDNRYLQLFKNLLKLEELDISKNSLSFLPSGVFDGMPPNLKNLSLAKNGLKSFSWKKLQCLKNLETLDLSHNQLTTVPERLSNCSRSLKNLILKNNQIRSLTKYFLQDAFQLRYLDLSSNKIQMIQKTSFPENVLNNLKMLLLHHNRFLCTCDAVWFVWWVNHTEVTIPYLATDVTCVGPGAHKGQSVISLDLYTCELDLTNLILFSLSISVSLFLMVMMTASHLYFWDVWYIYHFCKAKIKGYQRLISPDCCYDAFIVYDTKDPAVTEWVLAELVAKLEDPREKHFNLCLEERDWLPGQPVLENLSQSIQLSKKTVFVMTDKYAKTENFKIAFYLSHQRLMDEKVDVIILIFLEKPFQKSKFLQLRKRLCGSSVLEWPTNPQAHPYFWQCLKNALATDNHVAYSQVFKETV
Procedure: as §1, §2, §3, §4, §5

[1] = agonist activity, read-out: hTLR8(EC50)
[2] = read-out: concentration for 50% of maximal effect (EC50) hTLR8

Structure (SMILES)	EC50 (hTLR8; [1]) [µM]	EC50 (hTLR7; nd = EC50 larger than 25 μM) [µM]	EC50 (hTLR8; [2]) [µM]	EC50 (hTLR7) [µM]
CCCCCc1cc(Cc2ccc(COC)cc2)c(C)nc1N [Compound N27]	> 4	> 25	–	–
CCCCCc1cc(Cc2ccc(CN3CCOCC3)cc2O)c(C)nc1N [Compound N48]	> 4	> 25	–	–
CCCCCc1cc(Cc2ccc(CN3CCN(C)CC3)cc2OC(C)=O)c(C)nc1N [Compound N53]	0.273	> 25	–	–
CCCCCc1cc(Cc2ccc(CN(C)CC(=O)OC)cc2)c(C)nc1N [Compound N13]	3	> 25	–	–
CCCCCc1cc(Cc2ccccc2CN2CCOCC2)c(C)nc1N [Compound N36]	> 4	> 25	–	–
CCCCCc1cc(Cc2ccc(CN3CCNCC3)cc2)c(C)nc1N [Compound N10]	0.134	> 25	–	–
CCCN(CCC)C(=O)C1=Cc2ccc(-c3ccc(C(=O)N4CCCC4)cc3)cc2N=C(N)C1 [VTX2337, reference compound]	–	–	0.102	> 3
CCCCCc1cc(Cc2ccc(CN3CCCC3)cc2OC)c(C)nc1N [Compound N43]	0.102	> 25	–	–
CCCCCc1cc(Cc2ccc(CN(C)C)cc2)cnc1N [Compound N31]	0.248	> 25	–	–
CCCCNc1cc(Cc2ccc(CN3CCCC3)cc2)c(C)nc1N [Compound N56]	0.028	> 25	–	–
COCCCc1cc(Cc2ccc(CN3CCCC3)cc2)c(C)nc1N [Compound N29]	> 4	> 25	–	–
CCCCCc1cc(Cc2ccc(CN(C)C)cc2OC(=O)CC(C)C)c(C)nc1N [Compound N52]	0.252	> 25	–	–
CCCCCc1cc2nc(Cc3ccc(CN4CCCC4)cc3)ccc2nc1N [Compound N2]	0.48	> 25	–	–
CCCCCc1cc(Cc2ccc(CN3CCCC3)cc2OC(C)=O)c(C)nc1N [Compound N51]	0.175	> 25	–	–
CCCCCc1cc(Cc2ccc(CN(C)CCC(=O)OC)cc2)c(C)nc1N [Compound N15]	0.628	> 25	–	–
CCCCCc1cc(Cc2ccccc2CN)c(C)nc1N [Compound N37]	> 4	> 25	–	–
CCCCCc1cc(Cc2ccc(C(=O)N3CCN(C)CC3)cc2)c(C)nc1N [Compound N41]	> 4	> 25	–	–
CCCCCc1cc(Cc2ccc(CN3CCCCC3)cc2)c(C)nc1N [Compound N9]	0.054	> 25	0.04	–
CCCCCc1cc(Cc2ccc(CN3CCN(C)CC3)cc2)c(C)nc1N [Compound N11]	0.151	> 25	–	–
CCCCCc1cc(Cc2ccc(C(=O)N3CCOCC3)cc2)c(C)nc1N [Compound N40]	> 4	> 25	–	–
COCCCc1cc(Cc2ccc(CN3CCN(C)CC3)cc2)c(C)nc1N [Compound N30]	> 4	> 25	–	–
CCCCCc1cc(Cc2ccccc2CN(C)C)c(C)nc1N [Compound N34]	> 4	> 25	–	–
CCCCCc1cc(Cc2ccc(C(=O)N3CCCC3)cc2)c(C)nc1N [Compound N39]	> 4	> 25	–	–
CCCCCc1cc(Cc2ccc(CN(C)C)cc2O)c(C)nc1N [Compound N46]	0.351	> 25	–	–
CCCCCc1cc2nc(Cc3ccc(CN4CCOCC4)cc3)ccc2nc1N [Compound N3]	1.58	> 25	–	–
CCCCCc1cc(Cc2ccc(CN3CC4(COC4)C3)cc2)c(C)nc1N [Compound N22]	0.081	> 25	–	–
CCCCCc1cc2nc(Cc3ccc(CN(C)C)cc3)ccc2nc1N [Compound N1]	0.398	> 25	–	–
CCCCCc1cc(Cc2ccc(CN3CCCC3)cc2)c(C)nc1N [Compound N7]	0.063	> 25	–	–
COCCCc1cc(Cc2ccc(CN(C)C)cc2)c(C)nc1N [Compound N28]	> 4	> 25	–	–
